The text below walks through data of patent US20250043250A1, “COMPOSITIONS AND METHODS FOR EXPANDING KERATINOCYTES” (STEMCELL Technologies Canada Inc., priority 2021, published 2025).

Each structure is given as a SMILES string.

Experiment [1] relates to PSC-derived keratinocytes. Nature of the experiment: Adherent monolayer culture of dissociated PSC-derived hair-bearing skin organoid cells: colony emergence and morphology. Type of experiment: cell-based, human. The settings on record: H9 ES and 1C iPS derived cells, HKGS medium supplemented with the small molecule(s) (FIG. 11). As to the method:
The aggregates of Example 1 were plated under non-adherent conditions in an AggreWell™ or a 96-well plate, and cultured for 12 days in a skin organoid induction medium, such as STEMdiff™ Skin Organoid Induction Medium (STEMCELL Technologies). Following, the skin organoids are transferred into STEMdiff™ Skin Organoids Maturation Medium (STEMCELL Technologies) for at least 8 weeks, adding or changing the medium every 3-4 days. After the skin organoids have matured, preferably presenting as hair-bearing skin organoids (e.g. hair placode present skin organoids), they are dissociated overnight in a 37 degree incubator in a Dispase solution. […]
Various commercially available cell culture media are marketed for the purpose of culturing human epidermal keratinocytes: EpiLife™ Defined Growth Supplement for use with EpiLife™ medium; Gibco™ Human Keratinocyte Growth Supplement for use with EpiLife medium or Medium 154; and Cnt-57 Epithelial Proliferation Medium. […] Population doublings were also assessed over several weeks for keratinocytes grown from various PSC lines in a culture medium of this disclosure in comparison to EpiLife EDGS and EpiLife HKGS. […]

For experiment [2], the system named is TP63. Nature of the experiment: FACS analysis of TP63+ cells. Type of experiment: cell-based, human. The note with it: 1C iPS derived skin organoid cells, HKGS medium with or without supplement (FIG. 12). An excerpt:
WLS-1C iPS cells were formed into hair-bearing skin organoids as described herein and dissociated prior to plating the cells in EpiLife HKGS, or in EpiLife HKGS supplemented with the indicated small molecules. The cells were stained for TP63 expression and analyzed by FACS.
The ability of a commercially available medium to expand PSC-derived keratinocytes could be somewhat restored upon supplementation with one or more small molecule inhibitors, but not to the levels of DermaCult™ (FIG. 11). Specifically, HKGS medium was supplemented with A83-01, DAPT, Y-27632, or all three of A83-01, DAPT, and Y-27632. […] These findings were confirmed in a different experiment where 1C iPS cells were cultured in the foregoing media conditions and analyzed for p63 expression, to distinguish keratinocytes from other cell types included in the PSC-derived skin organoids, such as fibroblasts (FIG. 12).

Take `C[C@@H](N)[C@H]1CC[C@H](C(=O)Nc2ccncc2)CC1` [Y-27632]: in experiment [1], the “emergence of colonies in supplemented HKGS medium” value is “emergence of colonies”. For the same molecule, the “emergence of p63+ cells” value in experiment [2] was “emergence of comparable numbers of p63+ cells”.
